Laboratory results from patent US20050020613A1, “Sustained release opioid formulations and method of use” (priority 2002, published 2005).

Type: in vivo
Settings: dose equianalgesic to a 15 mg dose of hydrocodone

Compound | Equianalgesic Doses of Opioids: Calculated Dose
COc1ccc2c3c1O[C@H]1[C@@H](O)C=C[C@H]4[C@@H](C2)N(C)CC[C@@]341 [Codeine] | 90.0 mg
COc1ccc2c3c1OC1C(=O)CC[C@H]4[C@@H](C2)N(C)CC[C@]314 (stereo partly shown) [Hydrocodone, 4,5-epoxy-3-methoxy-17-methylmorphinan-6-one] | 15.0 mg
CN1CC[C@]23CCCC[C@H]2[C@H]1Cc1ccc(O)cc13 [Levorphanol] | 1.8 mg
CCC(=O)C(CC(C)N(C)C)(c1ccccc1)c1ccccc1 (stereo not shown) [Methadone] | 9.0 mg
COc1ccc2c3c1OC1C(=O)CC[C@@]4(O)[C@@H](C2)N(C)CC[C@]314 (stereo partly shown) [Oxycodone, 4,5-epoxy-14-hydroxy-3-methoxy-17-methylmorphinan-6-one] | 13.5 mg
Meperidine | 135.0 mg

Same assay, conditions: in vivo

Compound | Equianalgesic Doses of Opioids: Calculated Dose
CN1CC[C@]23c4c5ccc(O)c4O[C@H]2[C@@H](O)C=C[C@H]3[C@H]1C5 [Morphine] | 27.0 mg
